Results taken from ChEMBL document CHEMBL4007403, “Identification of Triazolothiadiazoles as Potent Inhibitors of the dCTP Pyrophosphatase 1” (J Med Chem, 2017).
In brackets after ≈: the same amount, converted by molar mass.

Tests used:
[1] = biological target: T1, dCTP pyrophosphatase 1 (Homo sapiens) (UniProt Q9H773)
T1 sequence (whole entry): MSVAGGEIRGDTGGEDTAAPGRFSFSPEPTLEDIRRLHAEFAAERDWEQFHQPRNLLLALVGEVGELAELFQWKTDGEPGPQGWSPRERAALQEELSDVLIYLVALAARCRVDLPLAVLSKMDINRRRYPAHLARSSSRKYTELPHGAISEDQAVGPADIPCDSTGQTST
Description: Binding affinity to recombinant human N-terminal His-tagged dCTPase 1 expressed in Escherichia coli BL21(DE3)pLysS assessed as change in melting temperature at 33 uM by Sypro Orange dye based DSF assay

[2] = Half life in mouse liver microsomes up to 100 uM preincubated for 10 mins followed by NADPH addition by UPLC-MS analysis; assay type: ADME, microsome
[3] = Hepatic extraction ratio in mouse liver microsomes up to 100 uM preincubated for 10 mins followed by NADPH addition by UPLC-MS analysis; assay type: ADME, microsome; settings: read-out: ERH
dCTP pyrophosphatase 1 = biological target: T2, dCTP pyrophosphatase 1 (Homo sapiens, UniProt Q9H773); experiment: Inhibition of recombinant human N-terminal His-tagged dCTPase 1 expressed in Escherichia coli BL21(DE3)pLysS using dCTP as substrate after 1 hr by malachite green reagent based assay
T2 sequence (Q9H773 whole entry): T1 sequence (whole entry)

[4] = Stability of the compound in biochemical assay buffer under basic mobile phase conditions by HPLC-MS analysis; assay type: physicochemical
[5] = Half life in human liver microsomes up to 100 uM preincubated for 10 mins followed by NADPH addition by UPLC-MS analysis; assay type: ADME, microsome
[6] = Stability of the compound in DMSO measured after several months by HPLC-MS analysis; assay type: physicochemical
[7] = Intracellular bioavailability in human HL60 cells assessed as ratio of fraction unbound in cells to intracellular drug accumulation at 0.5 uM after 45 mins by LC-MS/MS analysis; assay type: ADME; settings: hl-60, 0.75 h
[8] = Stability of the compound in biochemical assay buffer under mildly acidic mobile phase conditions by HPLC-MS analysis; assay type: physicochemical
[9] = Kinetic solubility of the compound; assay type: physicochemical; settings: read-out: Kinetic_solubility
[10] = Hepatic extraction ratio in human liver microsomes up to 100 uM preincubated for 10 mins followed by NADPH addition by UPLC-MS analysis; assay type: ADME, microsome; settings: read-out: ERH
HL-60 = experiment: Cytotoxicity against human HL60 cells assessed as decrease in cell viability at 1 to 5 uM after 72 hrs by resazurin assay; assay type: cell-based; settings: hl-60, 72 h
[11] = biological target: Bis(5'-nucleosyl)-tetraphosphatase [asymmetrical] (Homo sapiens, UniProt P50583); experiment: Inhibition of NUDT2 (unknown origin) by malachite green reagent based assay
Bis(5'-nucleosyl)-tetraphosphatase [asymmetrical], sequence (P50583 whole entry): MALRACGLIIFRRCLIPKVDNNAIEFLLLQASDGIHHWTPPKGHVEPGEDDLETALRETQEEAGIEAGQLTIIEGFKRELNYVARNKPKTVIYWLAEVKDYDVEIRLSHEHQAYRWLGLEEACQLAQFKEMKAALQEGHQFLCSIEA

[12] = biological target: Oxidized purine nucleoside triphosphate hydrolase (Homo sapiens, UniProt P36639); experiment: Inhibition of recombinant human MTH1 using dGTP as substrate after 1 hr by malachite green reagent based assay
[13] = biological target: T3, Uridine diphosphate glucose pyrophosphatase NUDT14 (Homo sapiens, UniProt O95848); experiment: Inhibition of human His-tagged NUDT14 expressed in bacterial expression system after 1 hr by malachite green reagent based assay
T3 sequence (O95848 whole entry): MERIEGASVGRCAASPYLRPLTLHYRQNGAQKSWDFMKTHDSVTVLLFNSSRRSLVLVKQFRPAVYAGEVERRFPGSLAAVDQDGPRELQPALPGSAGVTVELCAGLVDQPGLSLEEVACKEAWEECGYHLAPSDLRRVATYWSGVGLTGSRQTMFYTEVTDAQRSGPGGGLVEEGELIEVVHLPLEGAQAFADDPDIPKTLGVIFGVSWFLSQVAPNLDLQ

[14] = biological target: Inosine triphosphate pyrophosphatase (Homo sapiens, UniProt Q9BY32); experiment: Inhibition of human His-tagged ITPase expressed in bacterial expression system after 1 hr by malachite green reagent based assay
[15] = biological target: T4, Nucleotide triphosphate diphosphatase NUDT15 (Homo sapiens, UniProt Q9NV35); experiment: Inhibition of human His-tagged NUDT15 expressed in bacterial expression system after 1 hr by malachite green reagent based assay
T4 sequence (Q9NV35 whole entry): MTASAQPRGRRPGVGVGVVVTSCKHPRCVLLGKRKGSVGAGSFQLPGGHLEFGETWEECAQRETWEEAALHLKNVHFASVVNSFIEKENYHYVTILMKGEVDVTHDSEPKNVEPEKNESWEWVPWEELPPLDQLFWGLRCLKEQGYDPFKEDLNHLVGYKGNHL

[16] = biological target: ADP-sugar pyrophosphatase (Homo sapiens, UniProt Q9UKK9); experiment: Inhibition of human His-tagged NUDT5 expressed in bacterial expression system in presence of ADP after 1 hr by malachite green reagent based assay
[17] = Inhibition of human His-tagged dUTPase expressed in bacterial expression system after 1 hr by malachite green reagent based assay
[18] = biological target: T5, ADP-ribose pyrophosphatase, mitochondrial (Homo sapiens, UniProt Q9BW91); experiment: Inhibition of NUDT9 (unknown origin) by malachite green reagent based assay
T5 sequence (Q9BW91 whole entry): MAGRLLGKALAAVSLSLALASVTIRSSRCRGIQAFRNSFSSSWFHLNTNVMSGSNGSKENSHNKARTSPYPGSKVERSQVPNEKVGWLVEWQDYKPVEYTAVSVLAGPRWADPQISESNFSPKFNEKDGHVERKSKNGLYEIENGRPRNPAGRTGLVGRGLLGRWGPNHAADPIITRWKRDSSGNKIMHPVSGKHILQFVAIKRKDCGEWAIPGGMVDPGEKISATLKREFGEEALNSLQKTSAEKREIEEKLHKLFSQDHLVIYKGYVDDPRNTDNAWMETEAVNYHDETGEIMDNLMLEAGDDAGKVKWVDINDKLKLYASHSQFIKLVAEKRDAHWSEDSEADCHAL

[19] = Fraction unbound in human plasma; assay type: ADME, cell-free
[20] = Metabolic stability in human plasma after 4 hrs; assay type: ADME, cell-free; settings: read-out: Stability

SMILES	half-life [2]	hepatic extraction ratio [3]	IC50 (dCTP pyrophosphatase 1)	Stability [4]	half-life [5]	Stability [6]	Stability [8]	solubility kinetic [9]	hepatic extraction ratio [10]	further results
c1ccc(-c2nnc3sc(-c4ccc5c(c4)OCO5)nn23)nc1	1 min	0.99	190 nM	Stable	3 min	Stable	Stable	25 µM (≈ 8.08 µg/mL)	0.96	ΔTm [1]: 3.1 °C; Ratio [7]: 3.5
COc1ccc(-c2nn3c(-c4ccco4)nnc3s2)cc1OC	1 min	0.99	19 nM	Stable	5 min	Stable	Stable	19 µM (≈ 6.24 µg/mL)	0.91	Activity (HL-60): Non-Toxic
c1csc(-c2nnc3sc(-c4cnccn4)nn23)c1	1 min	0.99	170 nM	Stable	6 min	Stable	Stable	30 µM (≈ 8.59 µg/mL)	0.89	
Cc1cc(-c2nn3c(-c4cccs4)nnc3s2)n[nH]1	2 min	0.97	> 10000 nM	Stable	14 min	Stable	Stable	58 µM (≈ 16.7 µg/mL)	0.79	ΔTm [1]: 0.9 °C; Ratio [7]: 0.78
COc1ccc(-c2nn3c(-c4cccs4)nnc3s2)cc1OC	1 min			Stable	4 min	Stable	Stable	3 µM (≈ 1.03 µg/mL)		IC50 [11]: > 100000 nM; IC50 [12]: > 100000 nM; IC50 [13]: > 100000 nM; IC50 [14]: > 100000 nM; IC50 [15]: > 100000 nM; IC50 [16]: > 100000 nM; Activity (HL-60): Non-Toxic; IC50 [17]: > 100000 nM; IC50 [18]: > 100000 nM
CCc1noc(C)c1-c1nn2c(-c3cccs3)nnc2s1			346 nM	Stable		Stable	Stable			
CCCc1nnc2sc(-c3cccc(OC)c3)nn12			7460 nM	Stable		Stable	Stable			
COc1ccc(-c2nn3c(-c4ccccn4)nnc3s2)cc1OC	3 min	0.95	79 to 94 nM	Stable	21 min	Stable	Stable	27 µM (≈ 9.16 µg/mL)	0.67	ΔTm [1]: 9.4 °C; fraction unbound [19]: 0.063; Activity (HL-60): Non-Toxic; remaining at 4 h [20]: 100%; Ratio [7]: 0.15
Fc1ccccc1-c1nnc2sc(-c3ccccc3)nn12			410 nM	Stable		Stable	Stable			
Clc1cccc(-c2nn3c(-c4ccccn4)nnc3s2)c1			271 nM	Stable		Stable	Stable			
c1coc(-c2nnc3sc(-c4csc5c4CCCC5)nn23)c1			144 nM	Stable		Stable	Stable			
CN(C)c1ccc(-c2nn3c(-c4ccccn4)nnc3s2)cc1			291 nM	Stable		Stable	Stable			
CCCCc1nnc2sc(-c3cccc(OC)c3)nn12			2060 nM	Stable		Stable	Stable			
c1ccc(-c2nnc3sc(-c4cccc5ccccc45)nn23)nc1			204 nM	Stable		Stable	Stable			
Clc1ccc(/C=C/Cc2nn3c(-c4ccccn4)nnc3s2)cc1			220 nM	Stable		Stable	Stable			
